Here are results for 1 compound from the NIST ThermoML archive (doi:10.1016/j.tca.2016.03.009).

Structures are written as SMILES. Numbers after ± are expanded uncertainties.

The conditions of data set [1]: DSC. For orientation: DSC measures the heat that a sample takes up or gives off during a temperature scan.
A short description of data set [2]: Molar enthalpy of transition or fusion. The following applies: DSC.

For `CCCCOc1cc2c3cc(OCCCC)c(OCCCC)cc3c3cc(OCCCC)c(OCCCC)cc3c2cc1OCCCC` [2,3,6,7,10,11-hexabutoxytriphenylene], the values for the Triple point temperature in data set [1] (Crystal) and in data set [1] (Liquid crystal of unknown type) were 360.35 ± 1 K and 417.95 ± 1 K, respectively. Further, the “Molar enthalpy of transition or fusion” value in data set [2] (Crystal) came to 5.4 ± 0.174 kcal/mol; in data set [2] (Liquid crystal of unknown type), 4.47 ± 0.141 kcal/mol.
